Source: US11103505B2, “Formulations of a compound modulating kinases” (Plexxikon Inc., priority 2017, dated 2021)
“Also recorded” adds a separate entry of the source. Where two headings read alike, the source gives them in different places.

Experiments:
CYP3A4 = target: T1, CYP3A4 (Homo sapiens, UniProt P08684); assay: Addition of CYP inhibitors: metabolism of Compound I; assay type: in vivo; conditions: observed in Phase I clinical trials
T1 construct: from tissue; host or cells: human subjects in vivo (endogenous enzyme)
T1 sequence (P08684 whole entry): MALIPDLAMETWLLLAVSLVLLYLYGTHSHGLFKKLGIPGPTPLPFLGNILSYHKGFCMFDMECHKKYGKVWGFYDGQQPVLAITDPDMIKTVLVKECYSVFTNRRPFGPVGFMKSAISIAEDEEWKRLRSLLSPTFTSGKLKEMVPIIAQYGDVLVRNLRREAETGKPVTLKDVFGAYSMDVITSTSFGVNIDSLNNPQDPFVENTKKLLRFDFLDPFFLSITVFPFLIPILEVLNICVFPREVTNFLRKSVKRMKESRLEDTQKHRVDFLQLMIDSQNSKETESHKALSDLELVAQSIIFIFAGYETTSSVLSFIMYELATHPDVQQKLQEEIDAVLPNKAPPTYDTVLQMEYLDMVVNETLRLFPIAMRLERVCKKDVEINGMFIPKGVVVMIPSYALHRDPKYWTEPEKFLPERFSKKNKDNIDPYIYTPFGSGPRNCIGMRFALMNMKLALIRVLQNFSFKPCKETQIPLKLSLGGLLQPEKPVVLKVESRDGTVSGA

[1] = Phase 1 Part B: effect of CYP3A4 inhibitor cobicistat on PK of Compound I (HME) in healthy subjects; assay type: in vivo, human
[2] = Phase 1 Part A: single ascending dose PK of Compound I (75 mg HME tablet) in healthy subjects; assay type: in vivo, human; conditions: for AUC(0-t) / AUC(0-inf) / Cmax / half-life / Vd/F / CL/F / t1/2: geometric mean (CV %); for Vd/F: read-out: Vz/F; for Tmax: median (minimum-maximum)
Description: The 75 mg tablet formulation (described in Table 4) was made using the hot melt extrusion (HME) process described in this disclosure. This 75 mg tablet was used in human clinical studies (single-dose study in healthy volunteers) and (repeat-dose study in cancer patients). […] Following repeat dosing, the steady state exposure at the highest dose evaluated (900 mg BID), AUCt=68700 ng·hr/mL, approached the target efficacious exposure (Table 7).
(§1) A total of 40 adult subjects with a mean age of 37 years were enrolled. Part A enrolled subjects into four single dose cohorts of Compound I ranging from 150 to 900 mg, and the PK data were evaluated to select the most appropriate dose level to use in Part B (900 mg). […] All doses of each drug were administered in the fasted state. This study used an amorphous solid dispersion formulation of Compound I produced with a hot-melt extrusion (HME) process.

cytochrome P450 enzyme = cytochrome P450 enzyme (Homo sapiens, UniProt P08684); assay: CYP reaction phenotyping analysis; assay type: in vitro ADME
Chain of cytochrome P450 enzyme (P08684 whole entry): as above

[3] = Phase 1 Part B: effect of CYP3A4 inhibitor cobicistat on PK of Compound I (HME) in healthy subjects; assay type: in vivo, human; remark: listed apart in the source
Description: as §1

[4] = 300 mg level, compared with Compound I administered alone
[5] = human, in vivo, oral, Compound I 300 mg single dose alone, Part B, HME, fasted, N = 8, geometric mean (% CV)
[6] = human, in vivo, oral, single dose 150 mg, 75 mg HME tablet, fasted, N = 6
[7] = human, in vivo, oral, single dose 300 mg, 75 mg HME tablet, fasted, N = 5
[8] = human, in vivo, oral, single dose 450 mg, 75 mg HME tablet, fasted, N = 6
[9] = human, in vivo, oral, single dose 900 mg, 75 mg HME tablet, fasted, N = 6
[10] = single dose 150 mg, 75 mg HME tablet, fasted, N = 6
[11] = single dose 300 mg, 75 mg HME tablet, fasted, N = 5
[12] = single dose 450 mg, 75 mg HME tablet, fasted, N = 6
[13] = single dose 900 mg, 75 mg HME tablet, fasted, N = 6
[14] = 900 mg level, compared with Compound I administered alone
[15] = human, in vivo, oral, Compound I 900 mg single dose alone, Part B, HME, fasted, N = 10, geometric mean (% CV)

With `Nn1nnc2ccccc21` [ABT] as the compound, how does the “effect of added CYP inhibitor on metabolism of Compound I” value (CYP3A4) read?
The value was “blocked the metabolism of Compound I”.

With `O=C(c1c(F)ccc(NS(=O)(=O)N2CC[C@@H](F)C2)c1F)c1c[nH]c2ncc(-c3cnc(C4CC4)nc3)cc12` [Compound I, (R)-N-(3-(5-(2-cyclopropylpyrimidin-5-yl)-1H-pyrrolo[2,3-b]pyridine-3-carbonyl)-2,4-difluorophenyl)-3-fluoropyrrolidine-1-sulfonamide] as the compound, how does the “increase of mean AUC0-t and AUC0-∞ with cobicistat co-administration” value [1, 4] read?
The value was 2.6 fold.

And the “increase of mean Cmax with cobicistat co-administration” value [1, 4]?
The value was 1.8 fold.

And the AUC(0-t) ([1]; human, in vivo, oral, 300 mg, Compound I 300 mg single dose alone, Part B, HME, fasted, N = 8, geometric mean (% CV), read-out: AUC0-24)?
The AUC(0-t) was 15800 ng·h/mL.

What about the AUC(0-t) ([1]; human, in vivo, oral, 300 mg, Compound I 300 mg single dose alone, Part B, HME, fasted, N = 8, geometric mean (% CV), read-out: AUC0-t) of the same compound?
The AUC(0-t) was 16200 ng·h/mL.

And the AUC(0-t) ([1]; human, in vivo, oral, 900 mg, Compound I 900 mg single dose alone, Part B, HME, fasted, N = 10, geometric mean (% CV), read-out: AUC0-24)?
Its AUC(0-t) is 34100 ng·h/mL.

What about the AUC(0-inf) [1, 5] of the same compound?
The AUC(0-inf) was 16400 ng·h/mL.

And the Cmax [1, 5]?
The Cmax was 4840 ng/mL.

And the half-life [1, 5]?
Its half-life is 9.96 h.

What about the Tmax ([1]; human, in vivo, oral, Compound I 300 mg single dose alone, Part B, HME, fasted, N = 8, median (minimum-maximum)) of the same compound?
Its Tmax is 2 h.

What about the AUC(0-t) ([2]; human, in vivo, oral, 150 mg, single dose 150 mg, 75 mg HME tablet, fasted, N = 6, read-out: AUC0-12) of the same compound?
Its AUC(0-t) is 7240 ng·h/mL.

What about the AUC(0-t) ([2]; human, in vivo, oral, 150 mg, single dose 150 mg, 75 mg HME tablet, fasted, N = 6, read-out: AUC0-24) of the same compound?
The AUC(0-t) was 7720 ng·h/mL.

And the AUC(0-t) ([2]; human, in vivo, oral, 150 mg, single dose 150 mg, 75 mg HME tablet, fasted, N = 6, read-out: AUC0-t)?
The AUC(0-t) was 7870 ng·h/mL.

What about the AUC(0-t) ([2]; human, in vivo, oral, 300 mg, single dose 300 mg, 75 mg HME tablet, fasted, N = 5, read-out: AUC0-12) of the same compound?
Its AUC(0-t) is 12100 ng·h/mL.

And the AUC(0-t) ([2]; human, in vivo, oral, 300 mg, single dose 300 mg, 75 mg HME tablet, fasted, N = 5, read-out: AUC0-24)?
The AUC(0-t) was 12600 ng·h/mL.

What about the AUC(0-t) ([2]; human, in vivo, oral, 300 mg, single dose 300 mg, 75 mg HME tablet, fasted, N = 5, read-out: AUC0-t) of the same compound?
The AUC(0-t) was 12900 ng·h/mL.

What about the AUC(0-t) ([2]; human, in vivo, oral, 450 mg, single dose 450 mg, 75 mg HME tablet, fasted, N = 6, read-out: AUC0-12) of the same compound?
Its AUC(0-t) is 21000 ng·h/mL.

And the AUC(0-t) ([2]; human, in vivo, oral, 450 mg, single dose 450 mg, 75 mg HME tablet, fasted, N = 6, read-out: AUC0-24)?
The AUC(0-t) was 21800 ng·h/mL.

And the AUC(0-t) ([2]; human, in vivo, oral, 450 mg, single dose 450 mg, 75 mg HME tablet, fasted, N = 6, read-out: AUC0-t)?
The AUC(0-t) was 22100 ng·h/mL.

And the AUC(0-t) ([2]; human, in vivo, oral, 900 mg, single dose 900 mg, 75 mg HME tablet, fasted, N = 6, read-out: AUC0-12)?
The AUC(0-t) was 37500 ng·h/mL.

What about the AUC(0-t) ([2]; human, in vivo, oral, 900 mg, single dose 900 mg, 75 mg HME tablet, fasted, N = 6, read-out: AUC0-24) of the same compound?
The AUC(0-t) was 39200 ng·h/mL.

And the AUC(0-t) ([2]; human, in vivo, oral, 900 mg, single dose 900 mg, 75 mg HME tablet, fasted, N = 6, read-out: AUC0-t)?
The AUC(0-t) was 40000 ng·h/mL.

What about the AUC(0-inf) [2, 6] of the same compound?
Its AUC(0-inf) is 7610 ng·h/mL.

And the Cmax [2, 6]?
The Cmax was 2070 ng/mL.

And the half-life [2, 6]?
Its half-life is 8.18 h.

And the Vd/F [2, 6]?
Its Vd/F is 233 L.

And the Tmax ([2]; human, in vivo, oral, single dose 150 mg, 75 mg HME tablet, fasted, N = 6, read-out: tmax)?
Its Tmax is 2 h.

And the AUC(0-inf) [2, 7]?
Its AUC(0-inf) is 13200 ng·h/mL.

And the Cmax [2, 7]?
The Cmax was 4180 ng/mL.

And the half-life [2, 7]?
Its half-life is 9.56 h.

What about the Vd/F [2, 7] of the same compound?
The Vd/F was 313 L.

What about the Tmax ([2]; human, in vivo, oral, single dose 300 mg, 75 mg HME tablet, fasted, N = 5, read-out: tmax) of the same compound?
Its Tmax is 2 h.

And the AUC(0-inf) [2, 8]?
Its AUC(0-inf) is 22400 ng·h/mL.

What about the Cmax [2, 8] of the same compound?
Its Cmax is 7500 ng/mL.

What about the half-life [2, 8] of the same compound?
The half-life was 8.36 h.

What about the Vd/F [2, 8] of the same compound?
The Vd/F was 243 L.

And the Tmax ([2]; human, in vivo, oral, single dose 450 mg, 75 mg HME tablet, fasted, N = 6, read-out: tmax)?
The Tmax was 1 h.

What about the AUC(0-inf) [2, 9] of the same compound?
Its AUC(0-inf) is 40400 ng·h/mL.

What about the Cmax [2, 9] of the same compound?
Its Cmax is 13300 ng/mL.

And the half-life [2, 9]?
Its half-life is 9.12 h.

And the Vd/F [2, 9]?
Its Vd/F is 293 L.

What about the Tmax ([2]; human, in vivo, oral, single dose 900 mg, 75 mg HME tablet, fasted, N = 6, read-out: tmax) of the same compound?
The Tmax was 1 h.

What about the PK linearity ([2]; single ascending doses under fasted conditions) of the same compound?
The PK linearity was “linear PK”.

What about the CL/F [2, 10] of the same compound?
Its CL/F is 19.7 (46.9) L/hr.

And the t1/2 [2, 10]?
Its t1/2 is 8.18 h.

And the CL/F [2, 11]?
Its CL/F is 22.7 (56.5) L/hr.

And the t1/2 [2, 11]?
Its t1/2 is 9.56 h.

And the Tmax [2, 11]?
Its Tmax is 2.0 (1.0-2.0) hr.

What about the CL/F [2, 12] of the same compound?
Its CL/F is 20.1 (62.5) L/hr.

What about the t1/2 [2, 12] of the same compound?
Its t1/2 is 8.36 h.

And the Tmax [2, 12]?
Its Tmax is 1.0 (1.0-2.0) hr.

And the CL/F [2, 13]?
The CL/F was 22.3 (55.8) L/hr.

What about the t1/2 [2, 13] of the same compound?
The t1/2 was 9.12 h.

What about the Tmax [2, 13] of the same compound?
Its Tmax is 1.0 (1.0-2.0) hr.

And the “exposure (Cmax and AUC) versus dose” value ([2]; single dose 150 to 900 mg, 75 mg HME tablet, fasted)?
The value was “dose-proportional increase in exposure; also recorded: Exposure increased dose proportionally”.

What about the “main cytochrome P450 enzyme responsible for metabolism” value (cytochrome P450 enzyme) of the same compound?
Its value is “CYP3A4”.

What about the “increase of mean AUC0-t and AUC0-∞ with cobicistat co-administration” value [3, 14] of the same compound?
Its value is 3.8 fold.

And the “increase of mean Cmax with cobicistat co-administration” value [3, 14]?
The value was 2.7 fold.

What about the AUC(0-t) ([3]; human, in vivo, oral, 900 mg, Compound I 900 mg single dose alone, Part B, HME, fasted, N = 10, geometric mean (% CV)) of the same compound?
The AUC(0-t) was 34800 ng·h/mL.

What about the AUC(0-inf) [3, 15] of the same compound?
The AUC(0-inf) was 35200 ng·h/mL.

And the Cmax [3, 15]?
Its Cmax is 11400 ng/mL.

And the half-life [3, 15]?
Its half-life is 8.94 h.

What about the Tmax ([3]; human, in vivo, oral, Compound I 900 mg single dose alone, Part B, HME, fasted, N = 10, median (minimum-maximum)) of the same compound?
The Tmax was 2 h.
